Results from patent US8841306B2, “Antimicrobials” (Panacea Biotec Ltd., priority 2008, dated 2014).
≈ marks a conversion by molar mass, not a printed value. Read-outs that look alike come from different tables or passages of the source.

Tests used:
[1] = tested on: S. aureus PTCC 100 (LRSA); experiment: In-vitro antibacterial activity, broth microdilution MIC against linezolid resistant strain; assay type: cell-based; details: Staphylococcus aureus
Experimental: (§1) The in-vitro antibacterial activity of the compounds of the present invention (as described in Table 2) was determined by a broth microdilution following the guidelines prescribed by the Clinical and Laboratory Standards Institute (CLSI). This method is described in the CLSI Document M7-A7, Vol. 26, No. 2, “Methods for Dilution Antimicrobial Susceptibility Test for Bacteria that Grow Aerobically; Approved Standard-Seventh Edition”, which is incorporated herein by reference. Minimum Inhibitory Concentration (MIC) is defined as the minimum concentration of test compound which inhibits the growth of bacteria as visible or seen by the naked eye. This test can also be carried out by agar dilution method.
(§2) The compounds of the present invention were tested against a panel of standard microorganisms obtained from ATCC (American type culture collection), and a Linezolid resistant strain (LRSA) i.e. PTCC 100 (Panacea type culture collection). PTCC 100 is a repository that has been created by Panacea Biotec Ltd. at Mohali, India for storage and maintenance of clinical, bacterial and other isolates developed in-house which are used for testing the test compounds. Linezolid was used as comparator in all the tests.
(§3) In the broth microdilution method, the compound was dissolved in dimethylsulfoxide and two fold serial dilutions were carried out in 96 well microtitre plates. The inoculum was prepared by adjusting the turbidity of actively growing broth culture and added to the wells to obtain a final bacterial count of ˜2-5×10^4 CFU/well. The microtitre plates were incubated at 35±2° C. for 16-20 h and then read visually.
PTCC 100 was developed by a procedure similar to the one cited in Antimicrobial Agents and Chemotherapy, 2008, 52, 1940. Female Swiss albino mice (18-22gm) bred in-house were inoculated with S. aureus ATCC 29213 strain and dosed orally with Linezolid at 5 mg/kg/p.o, next day mice were sacrificed after 20-22 h and intraperitoneal swab was taken and streaked onto Mueller Hinton Agar plates containing 4 and 8 μg/mL of Linezolid. Colonies obtained on 4 μg/mL and 8 μg/mL were selected from plates and further passaged into mice (SAM), dosed orally with Linezolid at 7.5 mg/kg/p.o. Mice were sacrificed and intraperitoneal swabs were streaked onto plates containing higher linezolid concentration i.e 16 and 32 μg/mL and the process was repeated by incrementally increasing the concentration of Linezolid upto 10 mg/kg/p.o in mice, to finally obtain S. aureus strains resistant to Linezolid at 64 μg/mL.

[2] = tested on: E. faecium ATCC 700221 (VRE); experiment: In-vitro antibacterial activity, broth microdilution MIC (CLSI); assay type: cell-based; details: Enterococcus faecium, 35±2° C., 16-20 h, read visually, read-out: MIC E. faecium ATTC 700221 (VRE)
Experimental: as §1, §2, §3

[3] = tested on: S. aureus ATCC 33591 (MRSA); experiment: as above; assay type: cell-based; details: Staphylococcus aureus, 35±2° C., 16-20 h, read visually
Experimental: as §1, §2, §3

[4] = tested on: S. aureus ATCC 29213 (MSSA); experiment: as above; assay type: cell-based; details: Staphylococcus aureus, 35±2° C., 16-20 h, read visually
Experimental: as §1, §2, §3

[5] = tested on: E. faecalis ATCC 29212; experiment: as above; assay type: cell-based; details: Enterococcus faecalis, ATCC29212, 35±2° C., 16-20 h, read visually
Experimental: as §1, §2, §3

[6] = tested on: S. aureus ATCC 29213; experiment: In-vivo efficacy: systemic model of infection in mice; parameters: species or system Staphylococcus aureus; details: female Swiss albino mice, i.p. infection, oral dosing at 1 h and 5 h post infection, 50% survival at 7 days
Experimental: Female Swiss albino mice bred in-house were selected in weight range of 19-23 gm (n=6/group). S. aureus ATCC 29213 was grown overnight for 18-20 h, on Columbia Blood Agar (Difco; BD). Next day bacterial inoculum was prepared with optical density (O.D) corresponding to cell density of ˜2˜10^9 CFU/ml and mixed with 10% of gastric mucin (Difco; BD) in ratio of 1:1 to obtain final mucin concentration of 5% w/v. 0.5 mL of bacterial inoculum was injected intraperitoneally (i.p) into all the mice. Compounds obtained in the present invention, hereinafter referred as Test compounds were formulated in 0.25% Carboxymethylcellulose (C.M.C) and Tween 80, at different dose levels and then administered orally at 1 h and 5 h post infection. Linezolid was used as standard control. Saline was administered to the infection control group which received neither the test compound nor the standard drug. […] Numbers of survivors in each group were noted and ED50 of test compound on the basis of 50% survival was calculated through regression analysis.

[7] = PTCC100, read-out: MIC S. aureus PTCC 100 (LRSA)

| SMILES | MIC [1, 7] [µg/mL] | MIC [2] [µg/mL] | MIC [3] [µg/mL] | MIC [4] [µg/mL] | MIC [5] [µg/mL] | ED50 values S. aureus ATCC 29213 [6] [mg/kg/p.o.] | MIC ([1]; PTCC100, read-out: MIC of isolated colonies (PTCC 100)) [µg/mL] |
| --- | --- | --- | --- | --- | --- | --- | --- |
| COC(=O)NC[C@H]1CN(c2cc(F)c(N3CCN(C(=O)[C@H](C)NC(=O)c4cn5ccncc5n4)CC3)c(F)c2)C(=O)O1 [Compound 5] | 1 (≈ 1.7 µM) | 0.5 (≈ 0.852 µM) | 0.5 (≈ 0.852 µM) | 0.5 (≈ 0.852 µM) | 0.5 (≈ 0.852 µM) | – | – |
| COC(=O)NC[C@H]1CN(c2cc(F)c(N3CCN(C(=O)[C@H](C)NC(=O)c4ccc(F)nc4)CC3)c(F)c2)C(=O)O1 [Compound 196] | – | 0.25 (≈ 0.443 µM) | 0.5 (≈ 0.886 µM) | 0.5 (≈ 0.886 µM) | 0.5 (≈ 0.886 µM) | – | – |
| CC(=O)NC[C@H]1CN(c2cc(F)c(N3CCN(C(=O)CNC(=O)c4cn5ccncc5n4)CC3)c(F)c2)C(=O)O1 [Compound 6] | 1 (≈ 1.8 µM) | 0.5 (≈ 0.898 µM) | 0.5 (≈ 0.898 µM) | 0.5 (≈ 0.898 µM) | 0.5 (≈ 0.898 µM) | – | – |
| COC(=O)NC[C@H]1CN(c2cc(F)c(N3CCN(C(=O)[C@H](CO)NC(=O)c4cn5ccncc5n4)CC3)c(F)c2)C(=O)O1 [Compound 4] | 1 (≈ 1.66 µM) | 0.5 (≈ 0.83 µM) | 0.5 (≈ 0.83 µM) | 0.5 (≈ 0.83 µM) | 0.5 (≈ 0.83 µM) | – | – |
| COC(=O)NC[C@H]1CN(c2ccc(N3CCN(C(=O)CNC(=O)c4cn5ccncc5n4)CC3)c(F)c2)C(=O)O1 [Compound 3] | 2 (≈ 3.61 µM) | 0.25 (≈ 0.451 µM) | 0.5 (≈ 0.902 µM) | 0.5 (≈ 0.902 µM) | 0.5 (≈ 0.902 µM) | – | – |
| COC(=O)NC[C@H]1CN(c2ccc(N3CCCN(C(=O)CNC(=O)c4cn5ccncc5n4)CC3)c(F)c2)C(=O)O1 [Compound 25] | – | 1 (≈ 1.76 µM) | 2 (≈ 3.52 µM) | 2 (≈ 3.52 µM) | 1 (≈ 1.76 µM) | – | – |
| COC(=O)NC[C@H]1CN(c2cc(F)c(N3CCN(C(=O)CNC(=O)c4ccc(Cl)nc4)CC3)c(F)c2)C(=O)O1 [Compound 130] | 8 (≈ 14.1 µM) | 0.125 (≈ 0.22 µM) | 0.25 (≈ 0.441 µM) | 0.25 (≈ 0.441 µM) | 0.25 (≈ 0.441 µM) | – | – |
| C[C@H](NC(=O)c1cn2cccnc2n1)C(=O)N1CCN(c2c(F)cc(N3C[C@H](CNC(=O)c4ccno4)OC3=O)cc2F)CC1 [Compound 190] | – | 0.5 (≈ 0.802 µM) | 0.25 (≈ 0.401 µM) | 0.25 (≈ 0.401 µM) | 0.25 (≈ 0.401 µM) | – | – |
| CC(=O)NC[C@H]1CN(c2cc(F)c(N3CCN(C(=O)[C@H](CC(C)C)NC(=O)c4cn5ccncc5n4)CC3)c(F)c2)C(=O)O1 [Compound 2] | 4 (≈ 6.53 µM) | 1 (≈ 1.63 µM) | 2 (≈ 3.26 µM) | 2 (≈ 3.26 µM) | 2 (≈ 3.26 µM) | – | – |
| COC(=O)NC[C@H]1CN(c2cc(F)c(N3CCN(C(=O)[C@H](C)NC(=O)c4cccnc4F)CC3)c(F)c2)C(=O)O1 [Compound 197] | – | 0.25 (≈ 0.443 µM) | 0.5 (≈ 0.886 µM) | 1 (≈ 1.77 µM) | 0.5 (≈ 0.886 µM) | – | – |
| CC(=O)NC[C@H]1CN(c2cc(F)c(N3CCN(C(=O)C4(NC(=O)c5cn6ccncc6n5)CCCC4)CC3)c(F)c2)C(=O)O1 [Compound 7] | – | 8 (≈ 13.1 µM) | 16 (≈ 26.2 µM) | 32 (≈ 52.4 µM) | 8 (≈ 13.1 µM) | – | – |
| COC(=O)NC[C@H]1CN(c2cc(F)c(N3CCN(C(=O)CNC(=O)c4cn5ccncc5n4)CC3)c(F)c2)C(=O)O1 [Compound 1] | 0.25 (≈ 0.437 µM) | 0.25 (≈ 0.437 µM) | 0.25 (≈ 0.437 µM) | 0.5 (≈ 0.873 µM) | 0.5 (≈ 0.873 µM) | – | – |
| CC(=O)NC[C@H]1CN(c2ccc(N3CCOCC3)c(F)c2)C(=O)O1 [Linezolid, reference compound] | 32 (≈ 94.9 µM) | 2 (≈ 5.93 µM) | 1 (≈ 2.96 µM) | 2 (≈ 5.93 µM) | 2 (≈ 5.93 µM) | 6.0 | 64 |
